Results on 32 compounds are retold here after patent US20060223996A1, “IL-12 modulatory compounds” (Synta Pharmaceuticals Corp., priority 2004, published 2006).

The test system of this test is IL-12. Description: Human in vitro assay: inhibition of IL-12 production in IFNγ/LPS- or IFNγ/SAC-stimulated human PBMC or THP-1 cells (ELISA). In kind it is cell-based. Particulars: read-out: IC50 Range (representative in vitro IC50 data). The procedure, abridged: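 PBMC (5×10^5 cells/well) primed with IFNγ 30 U/mL for 22 h then LPS 1 μg/mL, or IFNγ 100 U/mL then SAC 0.01%; THP-1 primed with IFNγ 100 U/mL for 22 h then SAC 0.025%, with compound in 0.25% DMSO. Supernatant IL-12 p70/p40 measured by sandwich ELISA after 18 h; IC50 derived; viability by MTS.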
(In general: An ELISA detects its analyte on a solid surface through an enzyme-linked reagent.)

As a reminder, the IC50 is the concentration that gives 50% inhibition. As for `Cc1cccc(C(=O)Nc2nc(OCCc3ccccn3)cc(N3CCOCC3)n2)c1` [Compound 75, 3-Methyl-N-[4-morpholin-4-yl-6-(2-pyridin-2-yl-ethoxy)-pyrimidin-2-yl]-benzamide], the IC50 is not below 1000 nM. As for `O=C(Nc1nc(OCCc2ccccn2)cc(N2CCOCC2)n1)c1ccncc1` [Compound 76, N-[4-Morpholin-4-yl-6-(2-pyridin-2-yl-ethoxy)-pyrimidin-2-yl]-isonicotinamide], the concentration for half-maximal inhibition (IC50) is not below 1000 nM. As to `Cc1cc(C(=O)Nc2nc(OCCc3ccccn3)cc(N3CCOCC3)n2)no1` [Compound 77, 5-Methyl-isoxazole-3-carboxylic acid-[4-morpholin-4-yl-6-(2-pyridin-2-yl-ethoxy)-pyrimidin-2-yl]-amide], the IC50 is not below 1000 nM. On to `Cc1cccc(NNC(=O)c2cc(N3CCOCC3)nc(OCCc3ccccn3)n2)c1` [Compound 78, 6-Morpholin-4-yl-2-(2-pyridin-2-yl-ethoxy)-pyrimidine-4-carboxylic acid N′-m-tolyl-hydrazide], for which the half-maximal inhibitory concentration (IC50) is less than 1000 nM. `Cc1cccc(NNC(=O)c2cc(OCCc3ccccn3)nc(N3CCOCC3)n2)c1` [Compound 79, 2-Morpholin-4-yl-6-(2-pyridin-2-yl-ethoxy)-pyrimidine-4-carboxylic acid N′-m-tolyl-hydrazide]: the half-maximal inhibitory concentration (IC50) is not below 1000 nM. For `Cc1cccc(NNC(=O)c2cc(N3CCOCC3)nc(OCCN3CCOCC3)n2)c1` [Compound 80, 6-Morpholin-4-yl-2-(2-morpholin-4-yl-ethoxy)-pyrimidine-4-carboxylic acid N′-m-tolyl-hydrazide], the half-maximal inhibitory concentration (IC50) was less than 1000 nM. On to `Cc1ccc(NNC(=O)c2cc(N3CCOCC3)nc(OCCN3CCOCC3)n2)cc1C` [Compound 81, 6-Morpholin-4-yl-2-(2-morpholin-4-yl-ethoxy)-pyrimidine-4-carboxylic acid N′-(3,4-dimethyl-phenyl)-hydrazide], for which the IC50 is less than 1000 nM. In the case of `Cc1cccc(NNC(=O)c2cc(OCCN3CCOCC3)nc(N3CCOCC3)c2)c1` [Compound 82, 2-Morpholin-4-yl-6-(2-morpholin-4-yl-ethoxy)-isonicotinic acid N′-m-tolyl-hydrazide], the IC50 was not below 1000 nM. As to `Cc1cccc(OC(=O)Nc2cc(OCCc3ccccn3)nc(N3CCOCC3)n2)c1` [Compound 83, [2-Morpholin-4-yl-6-(2-pyridin-2-yl-ethoxy)-pyrimidin-4-yl]-carbamic acid m-tolyl ester], the IC50 was not below 1000 nM. As for `Cc1[nH]c2ccc(NCc3cc(OCCc4ccccn4)nc(N4CCOCC4)n3)cc2c1C` [Compound 84, (2,3-Dimethyl-1H-indol-5-yl)-[2-morpholin-4-yl-6-(2-pyridin-2-yl-ethoxy)-pyrimidin-4-ylmethyl]-amine], the half-maximal inhibitory concentration (IC50) was less than 1000 nM. With `Cc1cccc(NC(=O)C(=O)Nc2cc(OCCc3ccccn3)nc(N3CCOCC3)n2)c1` [Compound 85, N-[2-Morpholin-4-yl-6-(2-pyridin-2-yl-ethoxy)-pyrimidin-4-yl]-N′-m-tolyl-oxalamide] the figure was not below 1000 nM.

As for `O=C(Nc1cccc(O)c1)C(=O)Nc1cc(OCCc2ccccn2)nc(N2CCOCC2)n1` [Compound 86, N-(3-Hydroxy-phenyl)-N′-[2-morpholin-4-yl-6-(2-pyridin-2-yl-ethoxy)-pyrimidin-4-yl]-oxalamide], the half-maximal inhibitory concentration (IC50) is not below 1000 nM. With `O=C(Nc1cccc(O)c1)C(=O)Nc1cc(N2CCOCC2)nc(OCCc2ccccn2)n1` [Compound 87, N-(3-Hydroxy-phenyl)-N′-[6-morpholin-4-yl-2-(2-pyridin-2-yl-ethoxy)-pyrimidin-4-yl]-oxalamide], the half-maximal inhibitory concentration (IC50) was not below 1000 nM. With `Cc1cccc(OC(=O)Nc2cc(N3CCOCC3)nc(OCCc3ccccn3)n2)c1` [Compound 88, [6-Morpholin-4-yl-2-(2-pyridin-2-yl-ethoxy)-pyrimidin-4-yl]-carbamic acid m-tolyl ester] the figure was not below 1000 nM; with `Cc1[nH]c2ccc(NC(=O)c3cc(NCC(=O)N4CCOCC4)nc(N4CCOCC4)n3)cc2c1C` [Compound 89, 2-Morpholin-4-yl-6-(2-morpholin-4-yl-2-oxo-ethylamino)-pyrimidine-4-carboxylic acid (2,3-dimethyl-1H-indol-5-yl)-amide], less than 1000 nM; with `Cc1[nH]c2ccc(NC(=O)c3cc(N4CCN(c5ccccn5)CC4)nc(N4CCOCC4)n3)cc2c1C` [Compound 90, 2-Morpholin-4-yl-6-(4-pyridin-2-yl-piperazin-1-yl)-pyrimidine-4-carboxylic acid (2,3-dimethyl-1H-indol-5-yl)-amide], less than 1000 nM. Take `Cc1[nH]c2ccc(NC(=O)c3cc(N(CCO)CCO)nc(N4CCOCC4)n3)cc2c1C` [Compound 91, 6-[Bis-(2-hydroxy-ethyl)-amino]-2-morpholin-4-yl-pyrimidine-4-carboxylic acid (2,3-dimethyl-1H-indol-5-yl)-amide]: the IC50 was less than 1000 nM.

Regarding `CCCCN(CCCC)c1cc(C(=O)Nc2ccc3[nH]c(C)c(C)c3c2)nc(N2CCOCC2)n1` [Compound 92, 6-Dibutylamino-2-morpholin-4-yl-pyrimidine-4-carboxylic acid (2,3-dimethyl-1H-indol-5-yl)-amide], the IC50 was less than 1000 nM.

With `CCN(CC)c1cc(C(=O)Nc2ccc3[nH]c(C)c(C)c3c2)nc(N2CCOCC2)n1` [Compound 93, 6-Diethylamino-2-morpholin-4-yl-pyrimidine-4-carboxylic acid (2,3-dimethyl-1H-indol-5-yl)-amide], the IC50 is less than 1000 nM. With `Cc1[nH]c2ccc(NC(=O)c3cc(N4CCN(CCO)CC4)nc(N4CCOCC4)n3)cc2c1C` [Compound 94, 6-[4-(2-Hydroxy-ethyl)-piperazin-1-yl]-2-morpholin-4-yl-pyrimidine-4-carboxylic acid (2,3-dimethyl-1H-indol-5-yl)-amide] the figure was less than 1000 nM. In the case of `Cc1[nH]c2ccc(NC(=O)c3cc(NCCN(C)C)nc(N4CCOCC4)n3)cc2c1C` [Compound 95, 6-(2-Dimethylamino-ethylamino)-2-morpholin-4-yl-pyrimidine-4-carboxylic acid (2,3-dimethyl-1H-indol-5-yl)-amide], the IC50 was less than 1000 nM. Next, `Cc1[nH]c2ccc(NC(=O)c3cc(NCC(=O)O)nc(N4CCOCC4)n3)cc2c1C` [Compound 96, [6-(2,3-Dimethyl-1H-indol-5-ylcarbamoyl)-2-morpholin-4-yl-pyrimidin-4-ylamino]-acetic acid]: less than 1000 nM; `COC(=O)CNc1cc(C(=O)Nc2ccc3[nH]c(C)c(C)c3c2)nc(N2CCOCC2)n1` [Compound 97, [6-(2,3-Dimethyl-1H-indol-5-ylcarbamoyl)-2-morpholin-4-yl-pyrimidin-4-ylamino]-acetic acid methyl ester]: less than 1000 nM; `COCCNC(=O)CNc1cc(C(=O)Nc2ccc3[nH]c(C)c(C)c3c2)nc(N2CCOCC2)n1` [Compound 98, 6-{[(2-Methoxy-ethylcarbamoyl)-methyl]-amino}-2-morpholin-4-yl-pyrimidine-4-carboxylic acid (2,3-dimethyl-1H-indol-5-yl)-amide]: less than 1000 nM. With `Cc1[nH]c2ccc(NC(=O)c3cc(NCC(=O)N4CCC(C(N)=O)CC4)nc(N4CCOCC4)n3)cc2c1C` [Compound 99, 6-[2-(4-Carbamoyl-piperidin-1-yl)-2-oxo-ethylamino]-2-morpholin-4-yl-pyrimidine-4-carboxylic acid (2,3-dimethyl-1H-indol-5-yl)-amide] the figure was less than 1000 nM; with `Cc1[nH]c2ccc(NC(=O)c3cc(NCC(=O)N4CCC(O)CC4)nc(N4CCOCC4)n3)cc2c1C` [Compound 100, 6-[2-(4-Hydroxy-piperidin-1-yl)-2-oxo-ethylamino]-2-morpholin-4-yl-pyrimidine-4-carboxylic acid (2,3-dimethyl-1H-indol-5-yl)-amide], less than 1000 nM. Next, `Cc1[nH]c2ccc(NC(=O)c3cc(NCC(=O)N(C)CCO)nc(N4CCOCC4)n3)cc2c1C` [Compound 101, 6-({[(2-Hydroxy-ethyl)-methyl-carbamoyl]-methyl}-amino)-2-morpholin-4-yl-pyrimidine-4-carboxylic acid (2,3-dimethyl-1H-indol-5-yl)-amide]: less than 1000 nM. In the case of `CC(=O)N1CCN(C(=O)CNc2cc(C(=O)Nc3ccc4[nH]c(C)c(C)c4c3)nc(N3CCOCC3)n2)CC1` [Compound 102, 6-[2-(4-Acetyl-piperazin-1-yl)-2-oxo-ethylamino]-2-morpholin-4-yl-pyrimidine-4-carboxylic acid (2,3-dimethyl-1H-indol-5-yl)-amide], the IC50 was less than 1000 nM.

Regarding `Cc1[nH]c2ccc(NC(=O)c3cc(NCC(=O)N4CCc5ccccc5C4)nc(N4CCOCC4)n3)cc2c1C` [Compound 103, 6-[2-(3,4-Dihydro-1H-isoquinolin-2-yl)-2-oxo-ethylamino]-2-morpholin-4-yl-pyrimidine-4-carboxylic acid (2,3-dimethyl-1H-indol-5-yl)-amide], the IC50 is less than 1000 nM. Regarding `Cc1[nH]c2ccc(NC(=O)c3cc(NCC(N)=O)nc(N4CCOCC4)n3)cc2c1C` [Compound 104, 6-(Carbamoylmethyl-amino)-2-morpholin-4-yl-pyrimidine-4-carboxylic acid (2,3-dimethyl-1H-indol-5-yl)-amide], the 50% inhibitory concentration (IC50) is less than 1000 nM.

For the compound `CCNC(=O)CNc1cc(C(=O)Nc2ccc3[nH]c(C)c(C)c3c2)nc(N2CCOCC2)n1` [Compound 105, 6-(Ethylcarbamoylmethyl-amino)-2-morpholin-4-yl-pyrimidine-4-carboxylic acid (2,3-dimethyl-1H-indol-5-yl)-amide], the 50% inhibitory concentration (IC50) was less than 1000 nM. `Cc1[nH]c2ccc(NC(=O)c3cc(NCC(=O)N4CCN(C)CC4)nc(N4CCOCC4)n3)cc2c1C` [Compound 106, 6-[2-(4-Methyl-piperazin-1-yl)-2-oxo-ethylamino]-2-morpholin-4-yl-pyrimidine-4-carboxylic acid (2,3-dimethyl-1H-indol-5-yl)-amide]: the concentration for half-maximal inhibition (IC50) was less than 1000 nM.
